In series [1] the test system is malignant breast tumor. To be noted: by 30 minutes postcontrast; cited from earlier work.
Series [2] can be described thus: Complexation of exogenously added calcium ions (ionized calcium analyzer). It is filed as binding.
The test system of series [3] is VX2 carcinomas of the right hind limb. The experiment in a line: Tissue platinum content by atomic absorption after selective intraarterial perfusion. The class given is in vivo. To be noted: 15 mg cisplatin per rabbit intraarterially over 15 minutes. How it is done: (§1) Additional documentation for maintenance of the cisplatin-carrier paired-ion complex in vivo was obtained as follows. […] Animals were sacrificed at 15 minutes, and the tumors and organs were homogenized extracted and analyzed by atomic absorption for tissue platinum concentrations, as shown in Table 1.

The subject of series [4] is CBA/J mice. Briefly: Tetany / toxicity following intravenous injection. To be noted: 10 mg/25 gm body weight. The class given is in vivo.
Series [5] relates to red cells. To be noted: cited from earlier work.
Series [6] deals with BRO-strain human malignant melanomas. Briefly: MR imaging of human malignant melanoma xenografts. The class given is in vivo, human tumor in Swiss nude mice. As to the method: The strong paramagnetic metal ion, gadolinium (Gd^+3), was chelated stoichiometrically to DTPA-Dextran 70 polymer, whose preparation is described in Example 1, paragraph 2 (improved formulation). Swiss nude mice were inoculated with BRO-strain human malignant melanomas, and these were allowed to grow to a 1-1.5 cm diameter. Moderately T1-weighted MR imaging (TR=500 msec, TE=40 msec) was performed in a standard Diasonics™ medical imager and a 30-cm RF head coil, before and after intravenous injection of equivalent doses of Gd-DTPA-Dextran-70 (0.03 mmol Gd/kg) or Gd-DTPA (0.1 mmol/kg) contrast agent. […] It will also be recognized that much lower doses of the stronger superparamagnetics (including doses below about 0.01 mmol/kg, versus 0.1 mmol/kg for Gd-DTPA) can be used to obtain effective MRI contrast enhancement; and that much faster, more heavily T1-weighted pulse sequences can be implemented in the presence of intramolecularly superparamagnetic polyatomic complex-carrier polymer conjugates or paired-ion complexes.
(Xenograft models place foreign cells or tissue in a host animal.)

A short description of series [7]: Blood and total body clearance. It is filed as in vivo.
Series [8] relates to tumor interstitium. To be noted: in vivo; cited from earlier work.
For series [9] the following is noted: usually; cited from earlier work.
The conditions of series [10]: small-molecular contrast agents; cited from earlier work.
Series [11] concerns VX2 carcinomas. The experiment in a line: Histochemical platinum stain of tumor tissues after intraarterial perfusion. The note with it: selective arterial perfusion. The class given is in vivo, rabbit. How it is done:
At 5 to 15 minutes postinjection, the animals were sacrificed, their lungs removed and fixed with intratracheal buffered formalin, tissue sections cut at 8 microns thickness, and the sections stained using a newly devised method for platinum which comprises a microwave-augmented iron-type stain (60° C.×2 minute×3 cycles) using a 1:1 mixture of 2% ferriferrocyanide reagent and 4% HCl. […] To those skilled in the art, additional evidence for selective lung localization, was obtained by injecting intravenously, analogous (subembolizing) heparincoated small microparticles containing encapsulated amphotericin B, into identical mice, homogenizing the lungs, and documenting an 8-fold increment in drug levels over native amphotericin B (deoxycholate formulation, Fungizone; Squibb) recovered at 1 to 3 hours postinjection.
as §1
Additionally, histochemical platinum stains were performed on the tumor tissues, as described in Example 7.
Microinhomogeneities of tissue heating represent a major problem in hyperthermia treatment of tumors. […]

“gadolinium diethylenetriamine pentaacetic acid dimeglumine [Gd-DTPA dimeglumine]”: the “Tumor fading, in words” value in series [1] is “almost complete fading (tumor clearance)”.

Regarding “Cisplatin-DTPA-Dextran (70,000 MW) [DTPA-dextran cisplatin]”, the “Complexation of exogenously added calcium ions by the DTPA groups” value in series [2] is reported as “reduction in the complexation of exogenously added calcium ions”. Also, in series [3], the “Platinum content, Kidney” value was 2.92 ng/mg of tissue, wet weight and the “Platinum content, Liver” value is reported as 3.47 ng/mg of tissue, wet weight. In series [3] (Ipsilateral), the “Platinum content, Blood” value is recorded as 2.14 ng/mg of tissue, wet weight; the “Platinum content, Muscle” value was 0.29 ng/mg of tissue, wet weight; the “Platinum content, Tumor” value is 10.81 ng/mg of tissue, wet weight. In series [4], the “Tetany / toxicity following intravenous injection” value is recorded as “elimination of tetany”.

Consider `[O]=[51Cr](=[O])([O-])[O-]` [^51 Chromium, ^51 CrO4^-2], for which the “Average rate of elution from red cells” value in series [5] is 0.93 % per day.

Take “gadolinium diethylenetriamine pentaacetic acid [Gd-DTPA]”: in [6] (by one hour, 0.1 mmol/kg), the “Fading of tumor enhancement” value is “completely faded”. In [6] (intravenous, Gd-DTPA-dextran 0.03 mmol Gd/kg, Gd-DTPA 0.1 mmol/kg), the “Time to begin to optimally enhance the tumors” value amounted to 10 min. For the same molecule, the “Blood clearance t1/2” value in series [7] stood at 20 min. In addition, the “Retention in tumor interstitium” value in series [8] is 10 to 45 min. The Retained fraction result in series [9] is reported as “less than 0.5%”. Besides, the “Initial biodistribution, share of total body water” value in series [10] was “ca. 35%”.

In the case of `N.N.[Cl][Pt][Cl]` [cisplatin, cis-dichlorodiamine platinum], the “Intracellular tumor-cell platinum staining” value in series [11] is “aggregated staining was absent”.

The record behind these values is patent publication US5213788A, “Physically and chemically stabilized polyatomic clusters for magnetic resonance image and spectral enhancement” (priority 1991, dated 1993).
